# Reference: patent US11214803B2, “Modulators of YAP1 expression” (Ionis Pharmaceuticals, Inc., priority 2019, dated 2022)
# Marks after values point to notes of the source that are not given here. Strand notation (5' to 3'): a small letter for the sugar, then the base; units joined by * are phosphorothioate-linked, units joined directly phosphodiester-linked; [ ] holds rarer units or linkages, { } end groups; capitals alone tell only the bases. k = constrained ethyl (cEt); [5mC] = 5-methylcytosine; d = 2'-deoxy (DNA)
# Tested on: Yap1 mRNA
# Test: Antisense inhibition of human Yap1 in A-431 cells by cEt gapmers, single dose (Example 3, RTS36584)
# Assay type: cell-based
# Method: Modified oligonucleotides were designed to target a Yap1 nucleic acid and were tested for their effect on Yap1 mRNA level in vitro. The modified oligonucleotides were tested in a series of experiments that had similar culture conditions. Cultured A-431 cells at a density of 5,000 cells per well were treated using free uptake with 2,000 nM of modified oligonucleotide. After a treatment period of approximately 48 hours, RNA was isolated from the cells and Yap1 mRNA levels were measured by quantitative real-time RTPCR. Human primer probe set RTS36584 (forward sequence […], designated herein as SEQ ID NO.: 14; reverse sequence […], designated herein as SEQ ID NO.: 15; probe sequence […], designated herein as SEQ ID NO.: 16) was used to measure mRNA levels. Yap1 mRNA levels were normalized to total RNA content, as measured by RIBOGREEN®. Results are presented in the tables below as percent control of the amount of Yap1 mRNA relative to untreated control cells (% UTC). The modified oligonucleotides with percent control values marked with an asterisk (*) target the amplicon region of the primer probe set. Additional assays may be used to measure the potency and efficacy of the modified oligonucleotides targeting the amplicon region.
# The newly designed modified oligonucleotides in the Tables below were designed as 3-10-3 cEt gapmers. The gapmers are 16 nucleosides in length, wherein the central gap segment comprises of ten 2′-deoxynucleosides and is flanked by wing segments on the 5′ direction and the 3′ direction comprising three nucleosides each. Each nucleoside in the 5′ wing segment and each nucleoside in the 3′ wing segment has a cEt sugar modification. The internucleoside linkages throughout each gapmer are phosphorothioate (P═S) linkages. All cytosine residues throughout each gapmer are 5-methylcytosines.
# “Start site” indicates the 5′-most nucleoside to which the gapmer is targeted in the human gene sequence. “Stop site” indicates the 3′-most nucleoside to which the gapmer is targeted human gene sequence. […] Activity of the modified oligonucleotide may be defined in a different experiment.
# [1] = Table 13, A-431 cells, 5,000 cells per well, free uptake, 2,000 nM modified oligonucleotide, approx. 48 hours, RTS36584, normalized to RIBOGREEN, Yap1 mRNA relative to untreated control cells
# [2] = Table 12, A-431 cells, 5,000 cells per well, free uptake, 2,000 nM modified oligonucleotide, approx. 48 hours, RTS36584, normalized to RIBOGREEN, Yap1 mRNA relative to untreated control cells
# [3] = Table 35, Yap1 mRNA as percent of untreated control, 3-10-3 cEt gapmers targeting SEQ ID NO: 1 and 2, single dose
# [4] = Table 11, A-431 cells, 5,000 cells per well, free uptake, 2,000 nM oligonucleotide, approx. 48 hours, primer probe set RTS36584, Yap1 mRNA normalized to RIBOGREEN, percent of untreated control
# [5] = Table 34, Yap1 mRNA as percent of untreated control, 3-10-3 cEt gapmers targeting SEQ ID NO: 1 and 2, single dose
# [6] = Table 9, A-431 cells, 5,000 cells per well, free uptake, 2,000 nM, approximately 48 hours, RTS36584, normalized to RIBOGREEN, Yap1 mRNA relative to untreated control cells
# [7] = Table 10, A-431 cells, 5,000 cells per well, free uptake, 2,000 nM oligonucleotide, approx. 48 hours, primer probe set RTS36584, Yap1 mRNA normalized to RIBOGREEN, percent of untreated control
# [8] = Table 28, Yap1 mRNA as percent of untreated control, 3-10-3 cEt gapmers targeting SEQ ID NO.: 1, and 2
substance,measurement,setting,value
958465 (antisense kG*kG*k[5mC]*dT*dT*d[5mC]*dA*dA*dG*dG*dT*dA*dG*kT*k[5mC]*kT) [Compound 958465],YAP1 (% UTC),[1],84 % UTC
958574 (k[5mC]*kT*kG*dG*d[5mC]*dA*dA*dA*dT*dT*dA*dT*dA*kG*kG*k[5mC]; antisense) [Compound 958574],YAP1 (% UTC),[2],13 % UTC
958464 (antisense kG*k[5mC]*kT*d[5mC]*dA*dT*dG*d[5mC]*dT*dT*dA*dG*dT*k[5mC]*k[5mC]*kA) [Compound 958464],YAP1 (% UTC),[2],3* % UTC
1075573 (antisense kA*kA*kG*dG*dA*dA*d[5mC]*d[5mC]*dT*dT*d[5mC]*dT*dG*kT*kG*kT) [compound 1075573],YAP1 (% UTC),[3],72 % UTC
958714 (antisense kG*kA*kG*d[5mC]*dA*d[5mC]*dT*dG*d[5mC]*dG*d[5mC]*d[5mC]*d[5mC]*kT*kG*kG) [Compound 958714],YAP1 (% UTC),[2],82 % UTC
958715 (antisense kG*kT*kA*dA*dT*dA*dG*dG*dA*dG*dG*dT*dA*kA*kG*kA) [Compound 958715],YAP1 (% UTC),[1],48 % UTC
1075605 (antisense k[5mC]*kG*kT*dA*dA*dA*d[5mC]*dA*dT*dT*dT*dT*dG*k[5mC]*k[5mC]*kT) [compound 1075605],YAP1 (% UTC),[3],38 % UTC
958568 (kT*kA*kT*dG*dA*dG*dT*dG*dA*dT*d[5mC]*dA*dA*k[5mC]*k[5mC]*kT; antisense) [Compound 958568],YAP1 (% UTC),[4],5 % UTC
1074612 (DNA kA*kT*kA*dG*d[5mC]*dT*dT*dA*dT*dA*dT*dT*dG*kA*kA*kG; further chemistry not given here) [compound 1074612],YAP1 (% UTC),[5],12 % UTC
958441 (antisense kG*k[5mC]*kG*dA*d[5mC]*dG*dG*d[5mC]*dT*dG*d[5mC]*dG*dG*kG*k[5mC]*k[5mC]) [Compound 958441],YAP1 (% UTC),[6],72 % UTC
1075508 (kG*kA*kA*dA*dA*dA*dG*dG*dT*dT*dT*dA*dG*kG*kG*kT; antisense) [compound 1075508],YAP1 (% UTC),[5],84 % UTC
958491 (kA*k[5mC]*kT*dA*dA*dA*dT*dG*d[5mC]*dT*dG*dT*dG*kA*k[5mC]*kA; antisense) [Compound 958491],YAP1 (% UTC),[6],4 % UTC
958734 (antisense kA*k[5mC]*kA*d[5mC]*dA*dT*dA*dG*dA*dG*d[5mC]*dT*dA*kA*kG*kG) [Compound 958734],YAP1 (% UTC),[2],7 % UTC
958599 (kT*kT*k[5mC]*dA*dA*dG*dA*dA*dT*dA*d[5mC]*d[5mC]*d[5mC]*kA*kG*kT; antisense) [Compound 958599],YAP1 (% UTC),[2],5 % UTC
958658 (kA*k[5mC]*kA*dG*dT*dA*dT*dA*dA*dT*dA*dT*d[5mC]*k[5mC]*kT*kA; antisense) [Compound 958658],YAP1 (% UTC),[4],6 % UTC
1075220 (kA*kA*kT*dT*dT*dT*dA*dA*d[5mC]*dT*dG*dT*dG*kA*k[5mC]*k[5mC]; antisense) [compound 1075220],YAP1 (% UTC),[5],24 % UTC
1075924 (antisense kA*kT*kT*dT*dA*dA*dT*dA*d[5mC]*dT*d[5mC]*dT*d[5mC]*kT*kG*kG) [compound 1075924],YAP1 (% UTC),[5],21 % UTC
958652 (kG*k[5mC]*kT*dA*d[5mC]*dG*dA*d[5mC]*dG*dG*d[5mC]*dT*dG*kG*k[5mC]*k[5mC]; antisense) [Compound 958652],YAP1 (% UTC),[7],136 % UTC
1076500 (k[5mC]*kA*kA*dT*dT*dA*dA*dG*dA*dT*d[5mC]*dA*dA*k[5mC]*kA*kT; antisense) [compound 1076500],YAP1 (% UTC),[5],99 % UTC
958701 (antisense kT*kT*kA*dA*dA*d[5mC]*dT*dA*dG*dG*d[5mC]*dA*d[5mC]*kA*kT*kT) [Compound 958701],YAP1 (% UTC),[6],98 % UTC
958794 (antisense kT*kT*k[5mC]*d[5mC]*dG*d[5mC]*dA*dT*dT*dG*d[5mC]*d[5mC]*dT*kA*kA*kG) [Compound 958794],YAP1 (% UTC),[2],14 % UTC
1074828 (kA*kT*kA*dA*dA*dA*dT*d[5mC]*d[5mC]*dA*d[5mC]*d[5mC]*dT*kG*kA*kG; antisense) [compound 1074828],YAP1 (% UTC),"Table 26, Yap1 mRNA by 3-10-3 cEt gapmers targeting SEQ ID NO.: 1, and 2, percent of untreated control",58 % UTC
958738 (antisense kT*k[5mC]*kT*dA*dT*dA*dT*dG*dT*dT*dT*d[5mC]*d[5mC]*k[5mC]*k[5mC]*k[5mC]) [Compound 958738],YAP1 (% UTC),[4],11 % UTC
1076180 (kA*kT*kA*dA*dT*dT*dA*dG*d[5mC]*d[5mC]*dA*dA*d[5mC]*k[5mC]*kA*k[5mC]; antisense) [compound 1076180],YAP1 (% UTC),[5],42 % UTC
1075829 (kA*k[5mC]*kT*d[5mC]*dA*dA*dT*dA*dG*dA*dT*d[5mC]*dA*kT*kT*kG; antisense) [compound 1075829],YAP1 (% UTC),[3],41 % UTC
958407 (antisense kA*kA*kT*dA*d[5mC]*dT*dG*dA*dT*d[5mC]*dT*dG*d[5mC]*kA*kG*k[5mC]) [Compound 958407],YAP1 (% UTC),"Table 8, A-431 cells, 5,000 cells per well, free uptake, 2,000 nM, approximately 48 hours, RTS36584, normalized to RIBOGREEN, Yap1 mRNA relative to untreated control cells",35 % UTC
1075886 (antisense k[5mC]*kA*kT*dA*dA*d[5mC]*dA*d[5mC]*dT*dG*dA*dA*dG*kG*kT*kG) [compound 1075886],YAP1 (% UTC),[8],60 % UTC
958485 (kA*kG*kA*dG*dG*dT*d[5mC]*dA*dG*d[5mC]*dA*dA*dT*kA*k[5mC]*kA; antisense) [Compound 958485],YAP1 (% UTC),[1],3 % UTC
958593 (kG*kG*kT*d[5mC]*dA*dG*dT*dA*d[5mC]*dA*dG*dA*dG*kG*kG*k[5mC]; antisense) [Compound 958593],YAP1 (% UTC),[4],7 % UTC
958443 (antisense k[5mC]*kT*k[5mC]*d[5mC]*dA*d[5mC]*dG*dG*dG*d[5mC]*d[5mC]*dG*dA*kG*kG*kT) [Compound 958443],YAP1 (% UTC),[4],90 % UTC
958532 (kG*kA*kA*dG*dT*dA*dG*dG*dA*dG*d[5mC]*dA*dA*kG*kT*k[5mC]; antisense) [Compound 958532],YAP1 (% UTC),[7],2 % UTC
958459 (antisense k[5mC]*kT*kG*dA*dA*dG*d[5mC]*d[5mC]*dG*dA*dG*dT*dT*k[5mC]*kA*kT) [Compound 958459],YAP1 (% UTC),[2],28 % UTC
958736 (antisense kG*kT*kG*dA*dT*dA*dT*dG*dG*dA*dT*dT*d[5mC]*kT*kG*kT) [Compound 958736],YAP1 (% UTC),[6],3 % UTC
958543 (kA*k[5mC]*k[5mC]*dT*dT*dA*dT*dA*dG*dT*dA*dT*dT*k[5mC]*kT*kA; antisense) [Compound 958543],YAP1 (% UTC),[4],4 % UTC
958579 (kA*kT*k[5mC]*dT*dT*dA*dA*dT*d[5mC]*dT*dG*dT*dG*kG*k[5mC]*kT; antisense) [Compound 958579],YAP1 (% UTC),[2],4 % UTC
958640 (antisense kT*kA*kG*dA*dT*dA*dA*d[5mC]*dT*dG*dT*d[5mC]*dT*k[5mC]*k[5mC]*k[5mC]) [Compound 958640],YAP1 (% UTC),[1],13 % UTC
958696 (antisense kG*k[5mC]*kA*dT*dA*d[5mC]*dT*dA*d[5mC]*dA*d[5mC]*dT*dA*kT*kA*kA) [Compound 958696],YAP1 (% UTC),[6],56 % UTC
1075790 (kT*k[5mC]*kA*dG*dA*dA*dG*dA*dA*d[5mC]*dT*d[5mC]*d[5mC]*k[5mC]*kA*kT; antisense) [compound 1075790],YAP1 (% UTC),[8],14 % UTC
1076117 (k[5mC]*kT*kA*dG*dA*dA*dA*dA*dT*dA*dG*d[5mC]*d[5mC]*k[5mC]*kA*kT; antisense) [compound 1076117],YAP1 (% UTC),[3],15 % UTC
1076047 (kA*k[5mC]*kT*dT*dA*dA*dA*dT*dG*dG*dT*dG*d[5mC]*kA*kA*kT; antisense) [compound 1076047],YAP1 (% UTC),"Table 29, Yap1 mRNA as percent of untreated control, 3-10-3 cEt gapmers targeting SEQ ID NO.: 1, and 2",34 % UTC
1075533 (kG*kA*kT*dT*dA*d[5mC]*dT*d[5mC]*dA*dG*d[5mC]*dT*dA*kT*kG*kT; antisense) [compound 1075533],YAP1 (% UTC),"Table 27, Yap1 mRNA by 3-10-3 cEt gapmers targeting SEQ ID NO.: 1, and 2, percent of untreated control",65 % UTC
